Measurements from ChEMBL document CHEMBL1697781, “Assessment of the health effects of chemicals in humans: II. Construction of an adverse effects database for QSAR modeling” (Curr Drug Discov Technol, 2004).

Legend:
Details in all cases: human; call rule not given here
[1] = system: Hepatotoxicity; test: FDA HLAED, liver enzyme composite activity
[2] = system: Hepatotoxicity; test: FDA HLAED, alkaline phosphatase increase
[3] = system: Hepatotoxicity; test: FDA HLAED, serum glutamic oxaloacetic transaminase (SGOT) increase
[4] = system: Hepatotoxicity; test: FDA HLAED, serum glutamic pyruvic transaminase (SGPT) increase
[5] = system: Hepatotoxicity; test: FDA HLAED, lactate dehydrogenase (LDH) increase
[6] = system: Hepatotoxicity; test: FDA HLAED, gamma-glutamyl transferase (GGT) increase
For GGT Increase - Index Value in this document: reference of the scale not given here.
For LDH Increase - Index Value in this document: reference of the scale not given here.

Compound | Composite Activity - Active [1] | Composite Activity - Marginal [1] | Composite Activity - Score [1] | Alkaline Phosphatase Increase - Activity Score [2] | Alkaline Phosphatase Increase - Index Value [2] | Alkaline Phosphatase Increase - Number of Reports [2] | SGOT Increase - Activity Score [3] | SGOT Increase - Index Value [3] | SGOT Increase - Number of Reports [3] | SGPT Increase - Activity Score [4] | SGPT Increase - Index Value [4] | SGPT Increase - Number of Reports [4] | LDH Increase - Activity Score [5] | LDH Increase - Index Value [5] | LDH Increase - Number of Reports [5] | GGT Increase - Activity Score [6] | GGT Increase - Index Value [6] | GGT Increase - Number of Reports [6] | also measured
CCOC(=O)c1ncn2c1CN(C)C(=O)c1cc(F)ccc1-2 [FLUMAZENIL] | 0 | 0 | Inactive | Inactive | 0 | < 4 | Inactive | 2.5 | < 4 | Inactive | 2.5 | < 4 | Inactive | 0 | < 4 | Inactive | 0 | < 4 | 
CC1(C)O[C@@H]2C[C@H]3[C@@H]4C[C@H](F)C5=CC(=O)C=C[C@]5(C)[C@H]4[C@@H](O)C[C@]3(C)[C@]2(C(=O)CO)O1 [FLUNISOLIDE] | 0 | 0 | Inactive | Inactive | 0 | < 4 | Inactive | 0 | < 4 | Inactive | 0 | < 4 | Inactive | 0 | < 4 | Inactive | 0 | < 4 | 
CNCCC(Oc1ccc(C(F)(F)F)cc1)c1ccccc1 (stereo unspecified) [FLUOXETINE] | 3 | 2 | Active | Active | 4.7 | >= 4 | Active | 9.6 | >= 4 | Active | 8.7 | >= 4 | Marginally Active | 3.2 | >= 4 | Marginally Active | 3.3 | >= 4 | 
CC(C(=O)O)c1ccc(-c2ccccc2)c(F)c1 (stereo unspecified) [FLURBIPROFEN] | 0 | 0 | Inactive | Inactive | 0.9 | >= 4 | Inactive | 0.9 | >= 4 | Inactive | 0.9 | >= 4 | Inactive | 0.2 | < 4 | Inactive | 0.9 | >= 4 | 
CC(C)C(=O)Nc1ccc([N+](=O)[O-])c(C(F)(F)F)c1 [FLUTAMIDE] | 5 | 0 | Active | Active | 16.8 | >= 4 | Active | 22.4 | >= 4 | Active | 20.2 | >= 4 | Active | 8.4 | >= 4 | Active | 6.7 | >= 4 | 
C[C@@H]1C[C@H]2[C@@H]3C[C@H](F)C4=CC(=O)C=C[C@]4(C)[C@@]3(F)[C@@H](O)C[C@]2(C)[C@@]1(O)C(=O)SCF [FLUTICASONE] | 0 | 0 | Inactive | Inactive | 0 | < 4 | Inactive | 0.8 | < 4 | Inactive | 0.8 | < 4 | Inactive | 0 | < 4 | Inactive | 0 | < 4 | 
CC(C)n1c(/C=C/C(O)CC(O)CC(=O)O)c(-c2ccc(F)cc2)c2ccccc21 (stereo unspecified) [FLUVASTATIN] |  |  |  | Inactive | 0.5 | >= 4 | Inactive | 1 | >= 4 | Inactive | 1 | >= 4 | Inactive | 0 | < 4 | Inactive | 0.7 | >= 4 | Composite Activity - Active ([1]; Liver): 0; Composite Activity - Marginal ([1]; Liver): 0; Composite Activity - Score ([1]; Liver): Inactive
COCCCC/C(=N\OCCN)c1ccc(C(F)(F)F)cc1 [FLUVOXAMINE] | 2 | 0 | Active | Inactive | 2.7 | >= 4 | Active | 8.9 | >= 4 | Active | 8.9 | >= 4 | Inactive | 2.1 | < 4 | Inactive | 1.4 | < 4 | 
O=C(O)P(=O)(O)O [FOSCARNET] | 5 | 0 | Active | Active | 181.6 | >= 4 | Active | 121.1 | >= 4 | Active | 72.6 | >= 4 | Active | 48.4 | >= 4 | Active | 36.3 | < 4 | 
C[C@@H]1O[C@@H]1P(=O)(O)O [FOSFOMYCIN] | 0 | 0 | Inactive | Inactive | 0 | < 4 | Inactive | 0 | < 4 | Inactive | 0 | < 4 | Inactive | 0 | < 4 | Inactive | 0 | < 4 | 
CCC(=O)O[C@@H](O[P@](=O)(CCCCc1ccccc1)CC(=O)N1C[C@H](C2CCCCC2)C[C@H]1C(=O)O)C(C)C [FOSINOPRIL] | 0 | 0 | Inactive | Inactive | 0.3 | < 4 | Inactive | 1.5 | >= 4 | Inactive | 1.5 | >= 4 | Inactive | 0.6 | < 4 | Inactive | 0.6 | < 4 | 
O=C1NC(c2ccccc2)(c2ccccc2)C(=O)N1COP(=O)(O)O [FOSPHENYTOIN] | 0 | 0 | Inactive | Inactive | 0 | < 4 | Inactive | 0 | < 4 | Inactive | 0 | < 4 | Inactive | 0 | < 4 | Inactive | 0 | < 4 | 
